Test results published in patent publication US20040258620A1, “(Ethylene)-( propylene)-triaminepentaacetic acid derivatives, process for their production, and their use for the production of pharmaceutical agents” (priority 2001, published 2004).
Read-outs that look alike come from different tables or passages of the source.

Columns and labels:
[1] = Protonation constants of the ligands by pH-potentiometry; assay type: physicochemical; conditions: protonation constant of the ligand; I=0.1M TMACI, t=25° C.
Description: (§1) Protonation constants of the two ligands, DPTPA and EPTPA-Bz-NO2, and stability constants of their complexes formed with Gd(III) and some endogenously available cations have been determined by pH-potentiometry. The selectivity of the ligand for Gd(III) over Zn(II) (log(KGdL/KZnL)) is especially important as it directly relates to the safety of the Gd(III) contrast agent.

[2] = Stability constants of the Ca complexes by pH-potentiometry; assay type: physicochemical; conditions: for logKCaL: stability constant
Description: as §1

[3] = Stability constants of the complexes formed with Gd(III) by pH-potentiometry; assay type: physicochemical; conditions: I=0.1M TMACI, t=25° C.; for logKGdL: stability constant
Description: as §1

[4] = Stability constants of the complexes formed with Zn(II) by pH-potentiometry; assay type: physicochemical; conditions: I=0.1M TMACI, t=25° C.; for logKZnL: stability constant
Description: as §1

[5] = IUPAC Stability constants. Academic Software and K. J. Powell, 1999; cited from earlier work
[6] = Simultaneous analysis of 17O NMR, EPR and NMRD data; conditions: for ΔH^‡ / ΔS^‡: water exchange; for kex^298: water exchange rate
Description: The ^17O NMR, NMRD and EPR experimental data (points) and the fitted curves (lines) as obtained in a simultaneous analysis, according to the method of Powell et al., J. Am. Chem. Soc.

[7] = IUPAC Stability constants. Academic Software and K. J. Powell, 1999; cited from earlier work; remark: listed apart in the source
[8] = IUPAC Stability constants. Academic Software and K. J. Powell, 1999; cited from earlier work; remark: listed apart in the source

| pKa1 [1] | pKa2 [1] | pKa3 [1] | pKa4 [1] | pKa5 [1] | logKCaHL [2] | logKCaL [2] | logKGdH2L [3] | logKGdHL [3] | logKGdL [3] | logKZnH2L [4] | logKZnHL [4] | logKZnL [4] | A/ħ ([6]; Gd(III) complex of the ligand) | Δ^2 ([6]; Gd(III) complex of the ligand) | τr ([6]; Gd(III) complex of the ligand) | τy ([6]; Gd(III) complex of the ligand) | SMILES | ΔH^‡ ([6]; Gd(III) complex of the ligand) | ΔS^‡ ([6]; Gd(III) complex of the ligand) | kex^298 ([6]; Gd(III) complex of the ligand) | also measured |
| --- | --- | --- | --- | --- | --- | --- | --- | --- | --- | --- | --- | --- | --- | --- | --- | --- | --- | --- | --- | --- | --- |
| 10.91 | 9.29 | 7.07 | 2.76 | 2.19 | 8.63 | 6.01 | 5.43 | 6.30 | 13.00 | 3.17 | 8.06 | 15.60 | – | – | – | – | O=C(O)CN(CCCN(CC(=O)O)CC(=O)O)CCCN(CC(=O)O)CC(=O)O [DPTPA] | – | – | – | logKCaH2L [2]: 6.01 |
| – | – | – | – | – | – | – | – | – | – | – | – | – | −3.8 ± 0.2 10^6 rad s^−1 | 0.46 ± 0.02 10^20 s^−1 | 58 ± 11 ps | 25 ± 1 ps | O=C(O)CN(CCN(CC(=O)O)CC(=O)O)CCN(CC(=O)O)CC(=O)O [DTPA, diethylenetriamine-pentaacetic acid, reference compound] | 51.6 ± 1.4 kJ/mol | 53.0 ± 4.7 J mol^−1K^−1 | 3.3 ± 0.2 10^6 s^−1 | logKGdHL [5]: 1.80; logKGdL [5]: 22.50; Ev ([6]; Gd(III) complex of the ligand): 1.6 ± 1.8 kJ/mol; Er ([6]; not told): 17.3 ± 0.8 kJ/mol; logKZnHL [7]: 3.0; logKZnL [7]: 18.3; logKCaHL [8]: 6.42; logKCaL [8]: 10.89 |
| 10.86 | 8.94 | 4.70 | 3.25 | 2.51 | 7.04 | 10.02 | 2.40 | 3.35 | 19.31 | 2.53 | 8.99 | 16.01 | −3.5 ± 0.2 10^6 rad s^−1 | 0.37 ± 0.03 10^20 s^−1 | 84.6 ± 6 ps | 20 ± 1 ps | O=C(O)CN(CCCN(CC(=O)O)CC(Cc1ccc([N+](=O)[O-])cc1)N(CC(=O)O)CC(=O)O)CC(=O)O (centres unmarked) [EPTPA-bz-NO2] | 23.7 ± 1.8 kJ/mol | −9.2 ± 4.0 J mol^−1K^−1 | 146 ± 23 10^6 s^−1 | Er ([6]; Gd(III) complex of the ligand): 19.9 ± 1.7 kJ/mol |
